# Experimental data as given in patent publication EP2666766A1, “Novel E,E-diene compounds and their use as medicaments and cosmetics” (Dr. August Wolff GmbH & Co. KG Arzneimittel, priority 2012, dated 2013).
# Test system: Arachidonoylethanolamide Transport (AEAT)
# Experiment: Cellular uptake of [3H]-AEA (inhibition of AEA transport)
# Assay type: cell-based
# Conditions: Homo sapiens, U-937, 0.25 h; U937 cells; 100 nM AEA, 15 min, 37°C
# Method: C. Cellular uptake of [^3H]-AEA
# Human lymphoma U937 cells were grown in RPMI 1640 medium (Invitrogen, Basel, Switzerland) supplemented with 10% fetal bovine serum, […] fungizone (amphotericin B), 100 units/ml penicillin, 100 µg/ml streptomycin, and 2 mM L-glutamine (all from Invitrogen) and selected for the cellular AEA uptake assay. 2.5 x 10^6 cells were collected and suspended in 250 µL of RPMI 1640 medium (Invitrogen, Basel, Switzerland) at 37°C using glass silanized vials. Cells were pre-incubated 15 min at 37°C in presence of test compounds in a concentration range of 10^-11 - 10^-5 M or in presence of the same amount (5 µl) of vehicle control (DMSO). Then a mixture of 0.5 nM [^3H]-AEA (60 Ci/mmol) (American Radiolabeled Chemicals, Inc., San Louis, MO, US) and 99.5 nM of nonradioactive AEA (Tocris Cookson Ltd., Bristol, UK) resulting in a final concentration of 100 nM AEA was added and samples were incubated at 37°C for another 15 minutes. The reaction was stopped by rapid filtration over UniFilter®-96 GF/C (Perkin Elmer, Boston MA, US) pre-soaked with PBS 0.25 % BSA (w/v). Cells were washed three times with ice-cold PBS buffer containing 1% fatty acid free BSA (137 mM NaCl, 2.7 mM KCl, 10 mM Na2HPO4, 1.76 mM KH2PO4, 1% BSA fatty acid free, pH 7.4), dried and 40 µL MicroScint 20 scintillation cocktail (Perkin Elmer, Waltham, MA, US) was added. Radioactivity was measured using a Perkin Elmer 1450 Microbeta TRILUX liquid scintillation counter. Results were expressed as % of AEA uptake versus cells treated with solvent and the EC50 and IC50 values were calculated from the sigmoidal curves, which were generated using the GraphPad Prism 5.0 (GraphPad Software, San Diego, CA, US). Table 2: Inhibition of Arachidonoylethanolamide Transport (AEAT) (Determination as Described in Biological Assays C)
row,Compound,EC50 [nM]
1,CCCCCOC/C=C/C=C/CNC(=O)OCc1ccncc1 [Example 1],147
2,CCCCCOC/C=C/C=C/CNC(=O)NCCc1ccc(O)c(O)c1 [Example 3],6
3,CCCCOCC/C=C/C=C/CNC(=O)OCc1cc(C(=O)OCC)no1 [Example 9],3
4,CCCCOCC/C=C/C=C/CNC(=O)OCc1cc(C(=O)N(C)C)no1 [Example 12],6
5,CCCCOCC/C=C/C=C/CNC(=O)OCc1cc(C(=O)NC)no1 [Example 13],0.573
6,CCCCOCC/C=C/C=C/CN(C)C(=O)OCc1cc(C(=O)OCC)no1 [Example 14],286
7,CCCCOCC/C=C/C=C/CN(C)C(=O)OCc1cc(C(N)=O)no1 [Example 15],70
8,CCCCOCC/C=C/C=C/CN(C)C(=O)OCc1cc(C(=O)NC)no1 [Example 16],7
9,CCCCOCC/C=C/C=C/CN(C)C(=O)OCc1cc(C(=O)N(C)C)no1 [Example 17],81
10,CCCCOCC/C=C/C=C/CNC(=O)OCc1cc(C(N)=O)no1 [Example 18],9
